Results published in PubChem BioAssay (NCI).
Several values for one entry are separate records, joined by “and”; a condition that tells them apart may be missing. Identical values can stand only once.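 Tested at 5 concentrations; 48 h exposure; 96-well plates; endpoints linearly interpolated, else capped at highest concentration. GI50: concentration for 50% inhibition of growth. TGI denotes the concentration required for complete inhibition of growth.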

Tests used:
Assay in all cases: NCI anticancer screen, dose series, 48 h
NCI-H522 lung = system: NCI-H522 lung
SN12C renal = system: SN12C renal
SW-620 colon = system: SW-620 colon
HL-60(TB) leukemia = system: HL-60(TB) leukemia
BT-549 breast = system: BT-549 breast
LOX IMVI melanoma = system: LOX IMVI melanoma
HS 578T breast = system: HS 578T breast
786-0 renal = system: 786-0 renal
DU-145 prostate = system: DU-145 prostate
T-47D breast = system: T-47D breast

| SMILES | GI50 (NCI-H522 lung) | TGI (NCI-H522 lung) | GI50 (SN12C renal) | TGI (SN12C renal) | GI50 (SW-620 colon) | TGI (SW-620 colon) | GI50 (HL-60(TB) leukemia) | TGI (HL-60(TB) leukemia) | GI50 (BT-549 breast) | TGI (BT-549 breast) | GI50 (LOX IMVI melanoma) | TGI (LOX IMVI melanoma) | GI50 (HS 578T breast) | TGI (HS 578T breast) | GI50 (786-0 renal) | TGI (786-0 renal) | GI50 (DU-145 prostate) | TGI (DU-145 prostate) | GI50 (T-47D breast) | TGI (T-47D breast) |
| --- | --- | --- | --- | --- | --- | --- | --- | --- | --- | --- | --- | --- | --- | --- | --- | --- | --- | --- | --- | --- |
| COc1ccc2c(c1)C(=O)c1c-2c(N2CCN(C(=O)CCNCCNCCO)CC2)nc2ccccc12 | 17.5 µM | 46.8 µM | 15.9 µM | 31.7 µM | 2260 nM | 5.17 µM | 10.3 µM | 25.8 µM | 7.14 µM | 21.2 µM | 12.3 µM | 31.6 µM | 16.1 µM | 35.4 µM | 11400 nM | 25.6 µM | 12.1 µM | 24.5 µM | 13.4 µM | 29.8 µM |
| O=C1c2ccccc2C(=O)c2c1ccc1c2N=C(c2ccc(Br)cc2)CC(c2cccc3ccccc23)N1 (configuration not stated) | – | > 100 µM | – | > 100 µM | – | > 100 µM | – | > 100 µM | – | – | – | > 100 µM | – | – | – | > 100 µM | – | – | – | – |
| CC1(C)CC(N2CCN(C3CC(C)(C)NC(C)(C)C3)CC2)CC(C)(C)N1 | – | > 100 µM | – | > 100 µM | – | > 100 µM | – | > 100 µM | – | – | – | > 100 µM | – | – | – | > 100 µM | – | – | – | – |
| COc1cc(/C=C/c2cc(O)c(C/C=C(\C)CC/C=C(\C)CO)c(O)c2)cc2c1O[C@]1(C)CC[C@@H](O)C(C)(C)[C@H]1C2 | – | – | – | > 100 µM | – | – | 0.511 µM | 5.69 µM | 4.14 µM | > 54.7 µM | – | – | – | – | 17.2 nM and 130 nM | – | 26.4 µM | > 100 µM | > 62.4 µM | > 100 µM |
| Cc1cn2c(/C=C3/C(=O)Nc4ccc(Cl)cc43)c(C)nc2s1 | 1.01 µM | > 100 µM | – | 65 µM | 220 nM | > 67.7 µM | – | – | 5.94 µM | 97.1 µM | 0.0706 µM | 54.5 µM | 0.222 µM | 0.852 µM | < 40.3 nM | 31.1 µM | 0.84 µM | > 39.3 µM | 4.09 µM | > 75 µM |
| Fc1ccc(-c2nn3c(COc4ccc(Cl)cc4Cl)nnc3s2)cc1Oc1ccccc1 | 27 µM | > 100 µM | 12.9 µM | 29.6 µM | 36900 nM | > 100 µM | – | – | 19.3 µM | 43.8 µM | 14.6 µM | 29 µM | 16.4 µM | 47.5 µM | 14000 nM | 26.9 µM | 19.2 µM | 42.5 µM | 11.6 µM | 25.7 µM |
| O=C1C(Br)=CC2(C=C1Br)CCNc1c(O)c3c4c(c12)=NCCC=4C=N3 | – | 0.0542 µM | – | 0.344 µM | – | 0.105 µM | – | – | – | 0.507 µM | – | 0.254 µM | – | 3.87 µM | – | 0.272 µM | – | 1.49 µM | – | 0.165 µM |
| Cc1cc(C#Cc2ccccc2)ccc1-n1c(/C=C/c2cc(O)ccc2O)nc2ccccc2c1=O | 1.29 µM | 2.56 µM | 1.62 µM | 3.01 µM | 1710 nM | 3.51 µM | – | – | – | – | 1.37 µM | 2.65 µM | 1.54 µM | 7.95 µM | 1740 nM | 3.15 µM | 0.419 µM | 1.62 µM | 1.14 µM | 3.67 µM |
